Test in all cases: NCI tumour cell line growth inhibition, 48 h
Assay [1] has as its system MDA-N.
Assay [2] deals with DLD-1 colon.
In assay [3] the test system is DMS 273 small cell lung.
Assay [4] relates to HOP-18 NSCLC.
Assay [5] has as its system LXFL 529 NSCLC.
Assay [6] concerns M19-MEL melanoma.
Assay [7] concerns DMS 114 small cell lung.
Assay [8] deals with RXF-631 renal.
In assay [9] the test system is XF 498 CNS.
The subject of assay [10] is P388 leukemia.
Assay [11] concerns P388/ADR leukemia.
The test system of assay [12] is SN12K1 renal.

Molecules are shown by their SMILES. Where “and” joins values, the source holds several entries; their conditions need not be identical. Identical values can stand only once.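 Method: 48-hour compound exposure of cells in 96-well plates, five concentrations, linear interpolation of endpoints. At the GI50, growth is halved. TGI is the concentration that stops growth completely.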 A value given as a limit tells only on which side of the number the result lay.

`COc1cc2oc3c(c(=O)c2c(O)c1/C=C/C(C)C)C(C=C(C)C)Oc1cc(O)ccc1-3` (stereo not drawn) yielded a TGI in assay [1] of 31.9 µM.
For the molecule `O=c1c2cc3c(cc2c2cccc4c2n1CCC4)OCO3`, the TGI in assay [2], in [3], in [4], in assay [5] and in [6] was above 100 µM throughout.
In the case of `Cc1c2c(c(C)c3c1[nH]c1ccccc13)CN(C)CC2`, the TGI in [2] is above 100 µM; in [7] it was 28.5 µM; in [3], 34.3 µM; in assay [4] it was above 100 µM; in assay [5] it was 28.2 µM; in [6] it was 30.7 µM. In assay [8], this molecule showed a TGI of 89.7 µM.
Consider `COC(=O)Cc1cc(=O)[nH]c2c1C(=O)CCC2`, for which the TGI in assay [2], in [4], in [5] and in assay [9] was above 100 µM in each case.
Regarding `NC(=O)NC1C(C(=O)O)N(Cc2ccccc2)C(=O)N1Cc1ccccc1` (stereo not drawn), the TGI in assay [2], in [7], in assay [5], in assay [6] and in [9] was above 100 µM each time.
For the molecule `OCCN(CCO)c1cccc(N(CCO)CCO)n1`, the TGI in [2], in [7], in assay [3], in assay [5], in assay [6] and in [8] was above 100 µM in each case. The TGI in assay [9] is above 100 µM.
In the case of `COc1ccc(C(=O)C#Cc2c[nH]c(=O)[nH]c2=O)cc1`, the TGI was 24.6 µM in assay [2]; 46.7 µM in [7]; 30.4 µM in [3]; above 50.1 µM in [4]; 12.2 µM in assay [5]; 21.9 µM in [6]. The TGI in [8] stood at 34.1 µM.
`CCN1C(=NCCO)NS(=O)(=O)c2ccccc21`: the TGI in assay [1] is above 100 µM.
Regarding `CCC1(CN(C)C)CC/C(=C\c2ccc(OC)c(OC)c2)C1=O` (stereo not drawn), the TGI in assay [2], in assay [7], in assay [3], in assay [4], in assay [5] and in [6] was above 100 µM each time. The TGI in [8] and in assay [9] was above 100 µM each time.
For the molecule `O=C1CCCCC12CCC/C2=N\O` (stereo not drawn), the TGI in assay [2], in assay [7], in assay [3], in assay [4], in assay [5] and in [6] was above 100 µM each time. Further, the TGI in assay [8] was above 100 µM.
Turning to `O=C(NCCCl)SCCO`, the TGI in [2], in [7], in assay [3], in [5], in assay [6] and in [8] was above 100 µM throughout.
Molecule `CCC(C)C(=O)OCC(=O)c1ccc(-c2ccccc2)cc1` (stereo not drawn) came in with a TGI in assay [1] above 100 µM.
Take `CCc1nc(N)nc(N)c1-c1ccc(Cl)c(N=[N+]=[N-])c1`: the TGI in assay [2] was above 100 µM; in [4] it was above 100 µM; in [5], above 100 µM; in assay [6], above 100 µM; in [1], 53.9 µM and > 84.9 µM; in assay [9], 88.1 µM. Also, the GI50 in [1] is 0.812 µM and 5.03 µM.
In the case of `Cc1ccc(NC(=O)CCc2n[nH]c(=S)o2)cc1`, the TGI in [2], in assay [7], in [3], in assay [4], in assay [5] and in assay [6] was above 100 µM each time. For the same molecule, the TGI in [8] and in assay [9] was above 100 µM in each case.
With `COc1ccc2c(c1)-c1nn(CCCN(C)C)c3ccc([N+](=O)[O-])c(c13)N2`, the TGI is 5.24 µM and 6.12 µM in assay [2]; 4.24 µM and 13.8 µM in assay [7]; 1.86 µM and 4.99 µM in [3]; 13.6 µM and 21 µM in assay [4]; 3.39 µM and 11.8 µM in [6]; 2.53 µM and 3.61 µM in assay [1]. The TGI in assay [10] is 0.666 µM; in assay [11] it was 0.925 µM; in assay [12] it was 0.682 µM; in assay [9], 2.34 µM and 16.2 µM. In addition, the GI50 was 0.202 µM and 0.543 µM in assay [7]; 0.255 µM and 0.545 µM in assay [6]; 0.159 µM and 0.503 µM in assay [1]; 0.443 µM and 2.91 µM in [9].
Turning to `Cc1cc(Cl)ccc1C(=O)c1ccc2ccccc2c1C(=O)O`, in assay [1], the TGI is above 100 µM.
As to `Cc1ccc(S(=O)(=O)N/N=C/C(C)C)cc1`, the TGI in assay [2], in assay [7], in assay [3], in assay [4], in [5] and in assay [6] was above 100 µM in each case. In assay [8], the TGI is above 100 µM.
`O=C(O)c1c(Br)c(Br)c(Br)c(Br)c1C1c2ccc(O)cc2Oc2cc(O)ccc21`: in assay [1], the TGI was above 100 µM.
As to `COCCOCCOCCOc1cccc2c1C(=O)c1cccc(OCCOCCOCCOC)c1C2=O`, the TGI in assay [2], in [7], in [3], in [4], in [5] and in [6] was above 100 µM throughout. In addition, the TGI in [8] and in assay [9] was above 100 µM throughout.
Consider `c1ccc(OCc2nnc3n2N=C(c2ccccc2)CS3)cc1`, for which the TGI in [2], in assay [7], in assay [3], in assay [5], in [6] and in [9] was above 100 µM throughout.
With `O=C(CCCN1CCC(C(O)c2ccc(F)cc2)CC1)c1ccc(F)cc1` (stereo not drawn), the TGI in [2] came to 120 µM; in assay [7] it was 108 µM; in [3], 118 µM; in assay [4] it was 142 µM; in [6], 115 µM; in assay [1], 116 µM. In addition, the TGI in [10] came to 119 µM; in [11], 141 µM; in [12] it was 108 µM; in assay [9], 15.1 µM.
For the molecule `CC1(C)O[C@@H]2C[C@H]3[C@@H]4C[C@H](F)C5=CC(=O)C=C[C@]5(C)[C@@]4(F)[C@@H](O)C[C@]3(C)[C@]2(C(=O)CO)O1`, the TGI in assay [1] was above 100 µM.
`O=C(CC1C=Cc2ccccc2N1C(=O)c1ccccc1)c1ccccc1` (stereo not drawn) had a TGI in assay [1] of 39 µM.
For the molecule `CC(=O)c1ccc(NC(=O)COC(=O)c2cccc3c(=O)c4ccccc4[nH]c23)cc1`, the TGI in [2], in [7], in assay [4], in assay [5], in assay [6] and in [8] was above 100 µM throughout. The molecule further showed a TGI in assay [9] of 55.5 µM.
Turning to `COc1cccc(SSc2cccc(OC)c2C(=O)O)c1C(=O)O`, the TGI in assay [2], in assay [7], in [3], in [4], in assay [5] and in assay [6] was above 100 µM throughout. For the same molecule, the TGI in assay [8] and in assay [9] was above 100 µM each time.
Consider `CC(=O)OC1=CC2(OC(C)=O)CC(C)(C)C1C1C(=O)C=CC(=O)C12` (stereo not drawn), for which the TGI in assay [2], in [7], in assay [3], in assay [5], in [6] and in [1] was above 100 µM in each case. Moreover, the TGI in assay [8] and in assay [9] was above 100 µM in each case.
For the molecule `O=c1cccc(-c2cccc(=O)[nH]2)[nH]1`, the TGI in [2], in assay [7], in assay [3], in assay [4], in assay [5] and in assay [6] was above 100 µM throughout. This molecule also yielded a TGI in [8] above 100 µM.
Regarding `COc1cc2ccnc3c(=C(SC)SC)c(=O)c(c1OC)c23`, the TGI in assay [2] came out at 29.5 µM; in assay [7], 36 µM; in [3], 30.4 µM; in assay [4] it was 26.7 µM; in assay [5] it was 16.5 µM; in assay [6] it was 30.2 µM. Also, the TGI in assay [8] was 28.9 µM.
Molecule `Cc1ccc(C2NC(=O)c3ccccc3N2)c(C)c1` (stereo not drawn) registered a TGI in assay [1] of 0.701 µM.
Molecule `COC1CC(N)C(O)C(C)O1` (stereo not drawn) displayed a TGI in assay [1] above 100 µM.
Consider `CC1=Nc2c([nH]c(=S)[nH]c2=O)NC(c2c(Cl)cccc2Cl)C1` (stereo not drawn), for which the TGI was found to be 5.85 µM in [2]; 13.8 µM in assay [7]; 4.4 µM in assay [3]; 30.2 µM in assay [4]; 10.2 µM in assay [5]; 3.17 µM in [6]. Further, the TGI in [1] came to 1.99 µM; in [8] it was 22.5 µM; in [9] it was 10.9 µM.
For `O=C1OC(=O)C2C3C=CC(C12)C1C2C=CC2C31` (stereo not drawn), the TGI in assay [3], in assay [4], in assay [5], in assay [6], in [8] and in assay [9] was above 100 µM each time.
For the molecule `CC1OC(CC(=O)O)CC2=C1C(=O)c1c(O)cccc1C2=O` (stereo not drawn), the TGI in assay [2] is 0.0781 µM; in assay [7], 0.288 µM; in assay [3], 0.594 µM; in assay [4] it was 3.88 µM; in assay [5] it was 0.218 µM; in assay [6] it was 0.213 µM. Also, the TGI in [1] was 0.518 µM; in [8] it was 3.01 µM; in assay [9], 0.324 µM.
Regarding `O=[N+]([O-])c1cc2no[n+]([O-])c2cc1N1CCCCC1`, in assay [1], the TGI is 7.06 µM.
Consider `CCCCCCCCCCCc1c(O)c(=O)c2c(oc3c(=O)c(CCCCCCCCCCC)c(O)c(=O)c3n2-c2ccc(N(C)C)cc2)c1=O`, for which the TGI in assay [2] is 50.5 µM; in assay [7], 57.7 µM; in assay [3], 56.3 µM; in assay [4], 42.9 µM; in [5], 47.2 µM; in assay [9], 37.9 µM.
In [1], `CC(=O)Nc1n[n+]([O-])c2cc(C)ccc2[n+]1[O-]` yielded a TGI of 14.9 µM.
The same measure, in the same setting: for `CN(C)c1cccc(F)c1C(=O)NC(=O)Nc1ccc(Cl)cc1` the value was 0.762 µM.
As for `C=C(C(=C)P(=S)(C(C)C)C(C)C)P(=S)(C(C)C)C(C)C`, the TGI in assay [2], in [7], in assay [3], in [5], in assay [6] and in assay [8] was above 100 µM throughout. For the same molecule, in assay [9], the TGI was above 100 µM.
Consider `CC(=O)NC(C=O)C(O[C@H](C)C(=O)NC(C)C(=O)NC(CCC(N)=O)C(=O)OCc1ccccc1)C(O)C(O)COC(=O)CCNc1c2ccccc2nc2cccc([N+](=O)[O-])c12` (stereo partly drawn), for which the TGI in [2] is 16.5 µM; in assay [7], 10.7 µM; in assay [3] it was 12 µM; in assay [4], above 100 µM; in [5] it was 3.58 µM; in assay [6], 4.02 µM. In assay [9], this molecule displayed a TGI of 3.71 µM.
`CC(=O)c1ccc(NC(=O)C(=O)C(C#N)CC(C)(C)C=O)cc1` (stereo not drawn): the TGI in assay [5], in assay [6] and in [9] was above 100 µM throughout.
Consider `COc1ccc(NC(=O)CC(=O)n2nc(C)c(N=Nc3ccccc3C(=O)O)c2C)cc1`, for which the TGI in assay [2], in assay [7], in assay [3], in assay [5], in assay [6] and in assay [9] was above 100 µM each time.

The values are drawn from PubChem BioAssay (NCI).
